Consider 14 compounds from patent US12037344B2, “NLRP3 modulators” (INNATE TUMOR IMMUNITY, INC., priority 2018, dated 2024).

Molecules are shown by their SMILES. Where two headings read alike, the source gives them in different places.

The target in one experiment is T1, TLR7 (Homo sapiens, UniProt Q9NYK1).
T1 construct: human HEK-Blue cells co-expressing a TLR7 or TLR8 gene
T1 sequence (Q9NYK1 27-1049): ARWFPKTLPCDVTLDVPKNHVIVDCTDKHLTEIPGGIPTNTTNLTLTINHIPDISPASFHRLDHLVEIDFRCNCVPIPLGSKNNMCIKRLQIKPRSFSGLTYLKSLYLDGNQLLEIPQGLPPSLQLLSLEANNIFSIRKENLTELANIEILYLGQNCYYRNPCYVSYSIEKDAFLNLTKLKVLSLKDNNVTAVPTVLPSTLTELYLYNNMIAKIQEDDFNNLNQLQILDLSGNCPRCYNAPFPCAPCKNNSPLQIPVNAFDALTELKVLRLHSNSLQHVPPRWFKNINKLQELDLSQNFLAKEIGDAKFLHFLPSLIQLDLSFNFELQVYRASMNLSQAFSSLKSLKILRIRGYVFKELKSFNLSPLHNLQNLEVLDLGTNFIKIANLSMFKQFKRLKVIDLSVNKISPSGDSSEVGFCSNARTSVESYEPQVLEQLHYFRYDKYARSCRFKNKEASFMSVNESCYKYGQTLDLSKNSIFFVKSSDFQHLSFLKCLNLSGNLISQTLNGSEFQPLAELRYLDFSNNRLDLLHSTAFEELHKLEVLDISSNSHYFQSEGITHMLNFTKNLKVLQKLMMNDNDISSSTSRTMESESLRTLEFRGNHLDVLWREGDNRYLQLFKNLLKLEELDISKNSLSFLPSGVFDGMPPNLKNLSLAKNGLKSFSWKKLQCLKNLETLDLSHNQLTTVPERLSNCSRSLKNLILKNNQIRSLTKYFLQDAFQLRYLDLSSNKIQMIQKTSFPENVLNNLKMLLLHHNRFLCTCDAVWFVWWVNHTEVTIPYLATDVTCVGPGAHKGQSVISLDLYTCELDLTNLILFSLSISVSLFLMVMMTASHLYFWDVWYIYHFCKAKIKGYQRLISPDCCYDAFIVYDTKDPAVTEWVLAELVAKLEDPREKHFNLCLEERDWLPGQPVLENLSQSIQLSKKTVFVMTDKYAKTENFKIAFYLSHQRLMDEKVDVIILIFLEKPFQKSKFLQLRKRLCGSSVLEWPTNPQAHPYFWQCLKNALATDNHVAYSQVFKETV
As to the kind of experiment: In vitro human TLR7 binding reporter assay (HEK-Blue, NF-kB/AP1-inducible SEAP). It counts as cell-based. As to conditions: read-out: TLR7 Agonist EC50. The procedure, abridged:
(§1)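 Cells are seeded and grown for 24 h. Compounds or DMSO are then added and incubated 18 h at 37 °C. Quanti-Blue is added, and SEAP is read after thirty minutes. EC50 values are normalized, with RLU from 50 μM reference standard setting 100% Ymax.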
(In general: In a reporter assay the amount or activity of a reporter protein is the signal.)

In a further experiment the target is T2, TLR8 (Homo sapiens, UniProt Q9NR97).
T2 construct: human HEK-Blue cells co-expressing a TLR7 or TLR8 gene
T2 sequence (Q9NR97 27-1041): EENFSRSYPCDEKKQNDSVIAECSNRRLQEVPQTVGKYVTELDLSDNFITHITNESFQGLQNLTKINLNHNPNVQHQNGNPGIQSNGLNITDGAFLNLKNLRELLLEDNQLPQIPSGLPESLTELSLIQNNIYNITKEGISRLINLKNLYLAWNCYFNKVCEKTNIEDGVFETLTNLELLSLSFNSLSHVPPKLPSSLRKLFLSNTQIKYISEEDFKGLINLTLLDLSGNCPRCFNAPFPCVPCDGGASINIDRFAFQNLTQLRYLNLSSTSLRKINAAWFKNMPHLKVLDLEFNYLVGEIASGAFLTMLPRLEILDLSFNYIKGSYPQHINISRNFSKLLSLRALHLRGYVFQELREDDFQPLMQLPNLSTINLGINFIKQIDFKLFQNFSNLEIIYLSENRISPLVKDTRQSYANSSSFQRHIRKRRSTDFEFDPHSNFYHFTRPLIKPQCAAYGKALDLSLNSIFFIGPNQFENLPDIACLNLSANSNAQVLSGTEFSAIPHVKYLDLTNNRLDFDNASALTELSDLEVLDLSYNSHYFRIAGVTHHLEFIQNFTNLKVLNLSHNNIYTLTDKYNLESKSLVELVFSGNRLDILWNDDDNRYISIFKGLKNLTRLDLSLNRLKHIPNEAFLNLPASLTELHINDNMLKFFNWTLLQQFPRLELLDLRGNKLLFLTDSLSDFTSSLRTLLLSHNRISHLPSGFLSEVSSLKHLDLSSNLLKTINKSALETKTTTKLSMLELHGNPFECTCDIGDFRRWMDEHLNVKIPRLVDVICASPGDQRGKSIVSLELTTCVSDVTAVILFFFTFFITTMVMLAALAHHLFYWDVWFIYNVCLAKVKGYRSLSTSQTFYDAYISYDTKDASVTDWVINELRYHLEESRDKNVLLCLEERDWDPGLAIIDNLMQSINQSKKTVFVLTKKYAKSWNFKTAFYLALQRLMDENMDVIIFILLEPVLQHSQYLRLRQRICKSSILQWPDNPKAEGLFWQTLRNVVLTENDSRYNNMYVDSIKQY
Nature of the experiment: In vitro human TLR8 binding reporter assay (HEK-Blue, NF-kB/AP1-inducible SEAP). It counts as cell-based. Particulars: read-out: TLR8 Agonist EC50. The procedure, abridged:
as §1

A further experiment concerns THP-1 cells. Nature of the experiment: Measurement of IL-1β production, hTRF protocol (second alternative procedure), THP-1 cells. The format is cell-based, human. In outline:
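Compounds, dilution series starting at a final 10 μM, were incubated 2 hours at 37° C with PMA-differentiated THP-1 cells (50 ng/ml overnight; 50,000 cells/well, 2% FBS RPMI). Released IL-1β quantified in supernatant by hTRF kit with 1:40 antibody dilution, 4° C overnight, 665/615 nm ratio.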

Where [1] appears, read: Homo sapiens, THP-1, IL-1β production, human cells, read-out: NLRP3 hILIB EC50.
[2] abbreviates: Homo sapiens, THP-1, IL-1β production, human, read-out: NLRP3 hILIB EC50.
[3] abbreviates: IL-1β production, human, read-out: NLRP3 hILIB EC50.

For orientation: EC50 means the concentration giving half of the maximal effect. In the case of `CC(=O)N[C@H]1CCN(Cc2cc3c(N)nc4cc(-c5cc[nH]n5)ccc4c3[nH]2)C1` [Example 475], the EC50 at TLR7 (activity range) was above 100 µM; on TLR8 (activity range), above 100 µM; with THP-1 cells (setting [1]) it was 1.21 µM.
As for `Nc1nc2cc(-c3cc[nH]n3)ccc2c2[nH]c(CNC(=O)C3CCCO3)cc12` (stereo not drawn) [Example 412], the EC50 is above 100 µM at TLR7 (activity range), above 100 µM on TLR8 (activity range) and 1.87 µM with THP-1 cells (setting [1]).
`CCC(=O)NCCc1cc2c(N)nc3cc(-c4ccn[nH]4)ccc3c2[nH]1` [Example 154, N-{2-[4-amino-7-(1H-pyrazol-5-yl)-1H-pyrrolo[3,2-c]quinolin-2-yl]ethyl}propanamide]: the EC50 is above 100 µM at TLR7 (activity range class), above 100 µM at TLR8 (activity range class) and 1 µM in the experiment on THP-1 cells (setting [2]).
Turning to `Nc1nc2cc(-c3ccn[nH]3)ccc2c2nn(CC3CCCN3)cc12` (stereo not drawn) [Example 278], the EC50 was above 100 µM at TLR7 (activity range class), above 100 µM at TLR8 (activity range class) and 0.75 µM with THP-1 cells (setting [2]).
In the case of `Nc1nc2cc(-c3cc[nH]n3)ccc2c2nn(C3CCCCC3O)cc12` (single isomer, unassigned) [Example 318], the EC50 at TLR7 (activity range class) is above 100 µM; on TLR8 (activity range class) it was above 100 µM; with THP-1 cells (setting [3]), 3.09 µM.
Consider `CC(C(=O)N(C)CCO)n1cc2c(N)nc3cc(-c4ccn[nH]4)ccc3c2n1` (stereo not drawn) [Example 584], for which the EC50 on TLR7 (activity range) was above 100 µM; at TLR8 (activity range), above 100 µM; with THP-1 cells (setting [1]), 5.03 µM.
Consider `CC(C(=O)N1CC(C)(O)C1)n1cc2c(N)nc3cc(-c4ccn[nH]4)ccc3c2n1` (stereo not drawn) [Example 578], for which the figures for the EC50 at TLR7 (activity range), at TLR8 (activity range) and with THP-1 cells (setting [1]) were above 100 µM, above 100 µM and 18.6 µM, respectively.
For the compound `Nc1nc2cc(-n3cccn3)ccc2c2nn(C[C@@H](O)CO)cc12` [Example 389], the results for the EC50 on TLR7 (activity range class), on TLR8 (activity range class) and with THP-1 cells (setting [2]) were above 100 µM, above 100 µM and 0.91 µM, respectively.
Take `CC(=O)NC(C)Cn1cc2c(N)nc3cc(-c4ccn[nH]4)ccc3c2n1` (single isomer, unassigned) [Example 299]: the EC50 on TLR7 (activity range class) was above 100 µM; on TLR8 (activity range class), above 100 µM; in the experiment with THP-1 cells (setting [3]) it was 2.92 µM.
For `Nc1nc2cc(-c3cc[nH]n3)ccc2c2c1cnn2CCCO` [Example 216], the EC50 is above 100 µM on TLR7 (activity range class), above 100 µM at TLR8 (activity range class) and 3.04 µM with THP-1 cells (setting [2]).
For the compound `CC(C(=O)N1CC(O)C1)n1cc2c(N)nc3cc(-c4ccn[nH]4)ccc3c2n1` (stereo not drawn) [Example 579], the half-maximal effective concentration (EC50) at TLR7 (activity range) is above 100 µM; on TLR8 (activity range) it was above 100 µM; in the experiment with THP-1 cells (setting [1]), 4.47 µM.
Take `C[C@@H](CO)Cn1cc2c(N)nc3cc(-c4cc[nH]n4)ccc3c2n1` [Example 332]: the EC50 at TLR7 (activity range class) was above 100 µM; at TLR8 (activity range class), above 100 µM; in the experiment on THP-1 cells (setting [2]), 0.21 µM.
For `Nc1nc2cc(-c3cc[nH]n3)ccc2c2cn(CCNS(=O)(=O)c3ccccc3)nc12` [Example 114, N-{2-[4-amino-7-(1H-pyrazol-3-yl)-2H-pyrazolo[3,4-c]quinolin-2-yl]ethyl}benzenesulfonamide], the concentration giving a half-maximal response (EC50) at TLR7 (activity range class) is above 100 µM; at TLR8 (activity range class), above 100 µM; in the experiment on THP-1 cells (Homo sapiens, THP-1, read-out: NLRP3 hILIB EC50), 4.84 µM.
As to `Nc1nc2cc(-c3cc[nH]n3)ccc2c2cn(CC(=O)N[C@@H]3CCOC3)nc12` [Example 544], the EC50 is above 100 µM at TLR7 (activity range); above 100 µM at TLR8 (activity range); 4.36 µM in the experiment with THP-1 cells (IL-1β production, human cells, read-out: NLRP3 hILIB EC50).
